Calls of active or inactive are those of the source. No rule for the calls is given here.

For orientation: CC50 means the concentration that lowers cell viability or growth by half. Usually EC50 stands for the concentration giving half of the maximal effect. The term viability denotes a read-out of living cells in per cent, often relative to untreated cells.

The subject of assay [1] is BSC cells, SV40 CPE inhibition and viability. The assay is described as follows: SV40 cytopathic effect inhibition and cytotoxicity, SV40 T antigen inhibitor project, BSC cells, set 2 (AID 2775). The settings on record: for EC50: measured here: SV40 T antigen ATPase. (In general: Protection from cytopathic effect is a common read-out in antiviral testing.)
Assay in assay [2]: as above
The following applies: BSC cells, SV40 CPE inhibition and viability; for viability: BSC cell viability, at 100 µM, stronger effect = lower value.

For the molecule `COc1ccc(NC(=O)Cn2sc3ccccc3c2=O)cc1`, in assay [1], the CC50 is 73 µM (inactive) and the EC50 is 35 µM. Also, the viability in assay [2] came to 24.9%.

As to `O=C(Cn1sc2ccccc2c1=O)Nc1ccccc1`, in assay [1], the CC50 was 61 µM (inactive) and the EC50 was found to be 35 µM. Also, the viability in assay [2] stood at 24%.

Regarding `COc1cccc(NC(=O)Cn2sc3ccccc3c2=O)c1`, in assay [1], the CC50 is 57 µM (inactive) and the EC50 was determined as 69.2 µM. Besides, in assay [2], the viability amounted to 52.5%.

For the molecule `Cc1ccc(NC(=O)Cn2sc3ccccc3c2=O)cc1`, in assay [1], the CC50 was 57 µM (inactive) and the half-maximal effective concentration (EC50) came to 52.8 µM. Moreover, in assay [2], the viability came to 22%.

For the molecule `O=C(Cn1sc2ccccc2c1=O)Nc1ccc(Cl)cc1`, in assay [2], the result was inactive and the viability was 83%.

For the molecule `O=C(Cn1sc2ccccc2c1=O)NCc1ccccc1`, in assay [1], the CC50 is 58 µM (inactive) and the EC50 was 31.8 µM. Besides, the viability in assay [2] is 22.9%.

For `COc1cccc(-n2nnnc2C(Cl)(Cl)c2nnnn2-c2cccc(OC)c2)c1`, in assay [2], the outcome was inactive and the viability was determined as 99.5%.

Turning to `O=C(Cn1sc2ccccc2c1=O)Nc1ccc(F)cc1`, in assay [1], the CC50 is 59 µM (inactive) and the concentration for a half-maximal effect (EC50) was 55.5 µM. For the same molecule, in assay [2], the viability turned out to be 30.5%.

On to `O=C(Cn1sc2ccccc2c1=O)Nc1cccc(C(F)(F)F)c1`, for which, in assay [2], the result was inactive and the viability was found to be 87.5%.

Turning to `O=C(c1cccn1-c1ccccc1)c1cccn1-c1ccccc1`, in assay [2], the outcome was inactive and the viability came to 110%.
